Data reported in PubChem BioAssay AID2202554 (NIEHS Division of Translational Toxicology (DTT)).
Results filed as inconclusive are left out. Calls of active or inactive are those of the source. The rule behind the calls is not given here.

Tested on: S. typhimurium/E. coli reverse mutation, colony counts
Assay: Bacterial reverse mutation test (aka Ames test) summary data;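 note: His-minus Salmonella and trp-minus E. coli WP2 uvrA pKM101 with or without liver S9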
Text: The Ames test uses bacteria cultures to determine whether a substance causes mutations. Because there is a significant overlap between substances that are mutagens and those that are carcinogens, a quick and inexpensive mutagenicity test is useful as an initial screening for possible carcinogens.
The Ames test relies on specific strains of S. typhimurium, namely: TA97, TA98, TA100, TA102, TA104, TA1535, TA1537, and TA1538. In addition to the S. typhimurium strains, the test may also use the E. coli strain WP2 uvrA pKM101.
Each of the bacterial strains has a mutation that prevents it from making an amino acid (a protein building block) required for normal cell growth. The S. typhimurium strains are unable to manufacture histidine; the E. coli strain cannot manufacture tryptophan. The tester strains will not be able to grow without amino acid supplementation, unless the mutated gene is changed back to the correct DNA sequence (reversion mutation). Being exposed to a mutagenic chemical increases the chance that the mutant gene will be restored to the correct sequence, which allows the bacteria to grow and form colonies. Each substance under study is tested in a variety of bacterial strains with different types of altered DNA sequences in order to provide a comprehensive assessment of the mutagenic potential of the substance.
Some non-mutagenic substances are converted to mutagenic substances when metabolized by the liver; in contrast, some substances that are mutagenic in their natural state are converted to non-mutagens by the liver. All substances are tested in their natural state, as well as in the presence of liver enzymes that can produce this metabolic conversion of the test substance. Extracts of rat, hamster, or mouse liver enzymes (S9 mix) are used for this purpose.
D. Preparing the Cultures
Multiple sets of cultures are prepared using a range of doses and different amounts of liver enzymes for each bacterial strain. Each culture is prepared in a test tube containing a suspension of one bacterial strain and either an S9 mix or plain buffer solution. Then the test substance is added. Negative control cultures are established using the same ingredients, but without the test substance. Positive control cultures are established using known mutagens active in particular bacterial strains and metabolic conditions (for example, with or without S9). Once prepared, each culture is incubated for 20 minutes at 37° C. Agar is then added to the cultures, and the contents of each tube are poured onto the surface of a Petri dish that was prepared with standard bacterial culture medium. The plates are then incubated, usually for two days.
Depending on the substance to be tested, the exposure and incubation processes may be modified. These variations include:
- Elimination of the 20-minute incubation period in a test tube prior to plating (this method is referred to as the standard plate incorporation method)
- Enzymatic reduction of azo and diazo substances (this process occurs in the intestine or liver of animals) using a chemical called flavin mononucleotide (FMN) or intestinal bacterial preparations from rats
- Testing in sealed chambers such as desiccators for volatile and gaseous chemicals.
To validate the test, a trained investigator compares the number of colonies on the chemical-treated plates to the number of colonies on the negative control plates. If the substance under test is mutagenic, the chemical-treated plates will have a much greater number of colonies than the negative control plates.
- A positive response is a reproducible, dose-related increase in mutant colonies in any single strain, with or without the addition of S9 metabolic enzymes. While there is no minimum percentage of increase required for a result to be considered positive, a twofold increase in mutant colonies in a treated plate is usually considered to be a positive (mutagenic) response.
[…]

Compound	outcome
Cc1ccc2c(c1[N+](=O)[O-])C(=O)c1ccccc1C2=O	active; positive
Cc1cc(-c2ccc(N=Nc3cc(S(=O)(=O)O)c4ccccc4c3N)c(C)c2)ccc1N=Nc1cc(S(=O)(=O)O)c2ccccc2c1N	inactive; negative
COc1cc(-c2ccc(N=Nc3c(S(=O)(=O)O)cc4cc(S(=O)(=O)O)cc(O)c4c3O)c(OC)c2)ccc1N=Nc1c(S(=O)(=O)O)cc2cc(S(=O)(=O)O)cc(O)c2c1O	inactive; negative
CC1=CC(=O)CC(C)(C)C1	inactive; negative
CCC1(c2ccccc2)C(=O)NC(=O)NC1=O	active; weakly positive
CCCC[N+](=O)[O-]	inactive; negative
C[C@H](CCC(=O)O)[C@H]1CC[C@H]2[C@@H]3CC[C@@H]4C[C@H](O)CC[C@]4(C)[C@H]3CC[C@]12C	inactive; negative
CCCCCCCCCCCCOCC1CO1 (stereo not given)	inactive; negative
Nc1ccc(Sc2ccc(N)cc2)cc1	active; positive
CCN(CC)c1ccc(N=O)c(O)c1	inactive; negative
Cc1ccc(N)c(C)c1	active; positive
OCC(O)CCl (stereo not given)	active; positive
O=C1O[C@H]([C@@H](O)CO)C(O)=C1O	active; weakly positive
c1ccc(N=Nc2ccccc2)cc1	active; positive
C[Si](C)(C)O[Si](C)(O[Si](C)(C)C)O[Si](C)(C)C	inactive; negative
CCBr	active; positive
CCCCOCCOCCO	inactive; negative
CN(C)N=O	active; positive
Nc1ccn([C@H]2CC[C@@H](CO)O2)c(=O)n1	active; weakly positive
C[C@]12C=CC(=O)C=C1CC[C@@H]1[C@@H]2C(=O)C[C@@]2(C)[C@H]1CC[C@]2(O)C(=O)CO	active; positive
O=C(O)CS	inactive; negative
CN(C)CCN(Cc1ccccc1)c1ccccn1	inactive; negative
O=C1CCCCC1	inactive; negative

Compound	outcome
O=C(OOC(=O)c1ccccc1)c1ccccc1	inactive; negative
Nc1ccc2cc(S(=O)(=O)O)c(N=Nc3ccc(-c4ccc(N=Nc5ccc(O)c(C(=O)O)c5)cc4)cc3)c(O)c2c1	active; positive
CC(C)(C)OOC(C)(C)C	inactive; negative
CCCCN1CCCCC1C(=O)Nc1c(C)cccc1C (stereo not given)	inactive; negative
CCN(CC)C(=O)C(Cl)=C(C)OP(=O)(OC)OC	active; positive
O=C(O)c1cc(N=Nc2ccc([N+](=O)[O-])cc2)ccc1O	active; positive
CCCC(C)(COC(N)=O)COC(=O)NC(C)C (stereo not given)	inactive; negative
COC(=O)C1CCC(C(=O)OC)CC1 (stereo not given)	active; positive
O=C(O)c1cccc(Cl)c1	inactive; negative
CN(C)c1ccc(C2(c3ccc(N(C)C)cc3)OC(=O)c3cc(N(C)C)ccc32)cc1	inactive; negative
CC(CO)(CO)[N+](=O)[O-]	inactive; negative
CC(C)(C)CC(C)(C)c1ccc(OCCOCC[N+](C)(C)Cc2ccccc2)cc1	inactive; negative
CCN(CC)c1cccc(O)c1	active; positive
CCC(C)=O	inactive; negative
CCOC(=O)CC(SP(=S)(OC)OC)C(=O)OCC (stereo not given)	inactive; negative
O=C(Nc1ccc(Br)cc1)c1cc(Br)cc(Br)c1O	inactive; negative
C=CC(=O)OCC(CO)(COC(=O)C=C)COC(=O)C=C	inactive; negative
CCCCCCCC(=O)O	inactive; negative
NC1CCC(CC2CCC(N)CC2)CC1 (stereo not given)	inactive; negative
COc1cc([N+](=O)[O-])ccc1N=NC(C(C)=O)C(=O)Nc1ccccc1OC (stereo not given)	inactive; negative
O[C@@H]([C@H](O)[C@H](O)CBr)[C@H](O)CBr	active; positive
COc1cc(-c2ccc(N=Nc3cc(S(=O)(=O)O)c4ccccc4c3O)c(OC)c2)ccc1N=Nc1cc(S(=O)(=O)O)c2ccccc2c1O	inactive; negative
C=C1C/C(=C/C)C(=O)O[C@@H]2CCN3CC=C(COC(=O)[C@]1(C)O)[C@H]23	active; positive

Compound	outcome
Oc1ccc2ccccc2c1N=Nc1ccccc1	active; positive
N#CCCC(Br)(C#N)CBr (stereo not given)	inactive; negative
CCN(CC)C(=O)c1cccc(C)c1	inactive; negative
C=CC1(C)OC(=O)N(c2cc(Cl)cc(Cl)c2)C1=O (stereo not given)	inactive; negative
CCC(C)c1ccccc1O (stereo not given)	inactive; negative
BrC(Br)C(Br)(Br)Br	inactive; negative
CC(=O)OC(C)=O	inactive; negative
CC12CCC(C1)C(C)(C)C2=O (stereo not given)	inactive; negative
C=C(C)[C@@]12O[C@@]3(c4ccccc4)O[C@@H]1[C@@H]1[C@@H]4O[C@]4(CO)[C@@H](O)[C@]4(O)C(=O)C(C)=C[C@H]4[C@@]1(O3)[C@H](C)[C@H]2OC(=O)/C=C/C=C/c1ccccc1	inactive; negative
OCCC(F)(F)C(F)(F)C(F)(F)C(F)(F)C(F)(F)C(F)(F)C(F)(F)C(F)(F)F	inactive; negative
CN(C)c1ccccc1	inactive; negative
C=CC(=O)OCC1CO1 (stereo not given)	active; positive
[O-][N+](=Nc1ccc(Cl)c(Cl)c1)c1ccc(Cl)c(Cl)c1	inactive; negative
OC[P+](CO)(CO)CO	inactive; negative
CC(C)CN(CC(C)C)CC(C)C	inactive; negative
CC(C)(c1ccc(O)cc1)c1ccc(O)cc1	inactive; negative
N#C/C(N)=C(/N)C#N	inactive; negative
CCCCCCCCC	inactive; negative
CC(C)c1ccccc1	inactive; negative
CC(C)(C#N)C(C)(C)C#N	inactive; negative
O=C1c2c(O)ccc(O)c2C(=O)c2c(NCCO)ccc(NCCO)c21	active; positive
CC(=O)Nc1ccc(N=Nc2cc(C)ccc2O)cc1	active; positive
CCCCCCCCOP(=O)(OCCCCCCCC)OCCCCCCCC	inactive; negative

Compound	outcome
CCNC(=O)CC(C)=O	inactive; negative
CC(=O)O[C@]1(C(C)=O)CC[C@H]2[C@@H]3C[C@H](C)C4=CC(=O)CC[C@]4(C)[C@H]3CC[C@@]21C	inactive; negative
CC1(C)S[C@@H]2[C@H](NC(=O)COc3ccccc3)C(=O)N2[C@H]1C(=O)O	inactive; negative
CNNC	inactive; negative
O=c1ccc2ccccc2o1	active; positive
Cl/C=C\Cl	inactive; negative
CC(C)(C)OCC1CO1 (stereo not given)	active; positive
O=C1c2ccccc2-c2ccc3c4ccc5c6c(ccc(c7ccc1c2c73)c64)C(=O)c1ccccc1-5	active; weakly positive
O=C1[O][Bi][O]c2ccccc21	inactive; negative
Clc1c(Cl)c(Br)c2c(c1Cl)-c1nc-2nc2[n-]c(nc3nc(nc4[n-]c(n1)c1c(Cl)c(Br)c(Cl)c(Br)c41)-c1c(Cl)c(Cl)c(Br)c(Cl)c1-3)c1c(Br)c(Cl)c(Br)c(Cl)c21.[Cu+2]	active; positive
CCCCC(CC)CO (stereo not given)	inactive; negative
Cc1cc(N=Nc2c(O)ccc3ccccc23)c(S(=O)(=O)O)cc1Cl	active; weakly positive
CCCCC(CC)COP(=O)(OCC(CC)CCCC)OCC(CC)CCCC (stereo not given)	inactive; negative
NC(=O)NO	inactive; negative
NC(N)=NC(N)=NCCc1ccccc1	inactive; negative
ClC1(Cl)C2(Cl)C3(Cl)C4(Cl)C(Cl)(Cl)C5(Cl)C3(Cl)C1(Cl)C5(Cl)C24Cl (stereo not given)	inactive; negative
O=[N+]([O-])c1ccc(Cl)cc1Cl	active; positive
Cc1cn([C@H]2C=C[C@@H](CO)O2)c(=O)[nH]c1=O	active; weakly positive
CN(C)c1nc(=O)n(C2CCCCC2)c(=O)n1C	inactive; negative
CC(C)(C)c1ccc(OCC2CO2)cc1 (stereo not given)	active; positive
CC(C)[N+](=O)[O-]	active; positive
